In patent publication US20040162350A1, “Method of treating a non-cancerous disease of the male prostate” (priority 2003, published 2004):

How the values were obtained:
prostate enlargement = assay: Treatment of a person with prostate enlargement diagnosed as a non-cancerous condition; format: in vivo, human; details: 10 grams with each meal, total 40 grams daily
From the text: A person with prostate enlargement diagnosed as a non-cancerous condition started a regimen of taking 10 grams of 2-amino-4-carbamoylbutanoic acid with each meal for a total of 40 grams daily.

male volunteers = assay: Number of night awakenings with the need to urinate, recorded by male volunteers over six-week trial periods; format: in vivo, human; details: volunteers who woke three or more times a night in more than 28 nights of six-week baseline; multiple daily doses of 15-20 grams; result in at least two thirds of the nights of a subsequent six week trial period; seen in some volunteers
From the text: A group of male volunteers recorded for six weeks the number of times a night that they were awakened with the need to urinate. Those who woke up three or more times a night in more than 28 nights durng the six week trial were then given multiple daily doses of 15-20 grams of 2-amino-4-carbamoylbutanoic acid and continued to record the number of times a night that they were awakened with the need to urinate.

## NC(=O)CCC(N)C(=O)O (stereo not drawn) [2-amino-4-carbamoylbutanoic acid]
Prostate enlargement; after a few weeks
  relief felt: felt relief
Prostate enlargement; after two months of this regimen
  prostate size: shrunk to normal size
Male volunteers
  number of times a night awakened with the need to urinate: diminished from three or more times a night to twice, once, and even none at all
